Assay results from the NIST ThermoML archive (doi:10.1016/j.jct.2006.09.007).
Values joined by “and” are separate entries in the source; they are usually repeats but may differ in a detail not shown here. Equal entries are not always repeated.

How the values were obtained:
[1] = xn = mol fraction of the nth substance listed; settings: 101.3 kPa, Liquid
[2] = molar heat capacity at constant pressure; settings: 298.15 K; 101.33 kPa; Liquid; Flow calorimetry
[3] = 101.3 kPa, Liquid

N#Cc1ccccc1 [benzonitrile] + Cc1cccc(C)c1
[1], 298.15 K, Flow calorimetry
Settings	excess molar heat capacity [J/K/mol]
x1 = 0.0568	0.522
x1 = 0.0772	0.686
x1 = 0.1671	1.299
x1 = 0.2404	1.53
x1 = 0.3272	1.727
x1 = 0.4115	1.696
x1 = 0.4878	1.66
x1 = 0.5753	1.415
x1 = 0.6422	1.272
x1 = 0.7301	0.936
x1 = 0.8157	0.683
x1 = 0.887	0.377
x1 = 0.9334	0.254

mass density [kg/m3], [1]
Settings	x1 = 0.0741	x1 = 0.1804	x1 = 0.316	x1 = 0.4608	x1 = 0.5438	x1 = 0.6475	x1 = 0.74	x1 = 0.8816	x1 = 0.899	x1 = 1
298.15 K	869.26	883.15	901.15	920.81	932.33	947.01	960.47	981.74	984.42	1000.25
308.15 K	859.61	873.5	891.52	911.17	922.69	937.4	950.87	972.18	974.85	990.67

N#Cc1ccccc1 [benzonitrile]
Settings	molar heat capacity at constant pressure [J/K/mol]
[2]	166.41

[3]
Settings	mass density [kg/m3]
298.15 K	1000.25
308.15 K	990.67

N#Cc1ccccc1 [benzonitrile] + Cc1ccccc1C
[1]
Settings	excess molar heat capacity, 298.15 K [J/K/mol]	mass density, 298.15 K [kg/m3]	mass density, 308.15 K [kg/m3]
x1 = 0.0394	0.448	–	–
x1 = 0.0781	0.829	–	–
x1 = 0.0815	–	884.98	875.72
x1 = 0.1262	–	890.21	881
x1 = 0.1398	1.273	–	–
x1 = 0.1604	–	894.21	884.95
x1 = 0.2299	1.689	–	–
x1 = 0.2579	–	905.68	896.47
x1 = 0.2803	1.799	–	–
x1 = 0.3687	1.875	–	–
x1 = 0.4054	–	923.32	914.01
x1 = 0.4391	1.792	–	–
x1 = 0.496	–	934.4	925.13
x1 = 0.5361	–	939.32	929.98
x1 = 0.5364	1.592	–	–
x1 = 0.611	1.376	–	–
x1 = 0.6558	–	954.37	945.1
x1 = 0.6924	–	959.03	949.64
x1 = 0.7003	1.11	–	–
x1 = 0.7684	0.826	–	–
x1 = 0.8727	0.479	–	–
x1 = 0.876	–	983.2	973.86
x1 = 0.9031	–	986.86	977.39
x1 = 0.9314	0.242	–	–
x1 = 0.9608	–	994.84	985.42
x1 = 1	–	1000.25	990.67

Cc1cccc(C)c1 [1,3-dimethylbenzene]
Settings	molar heat capacity at constant pressure [J/K/mol]
[2]	181.38

[3]
Settings	mass density [kg/m3]
298.15 K	859.68
308.15 K	850.01

N#Cc1ccccc1 [benzonitrile] + Cc1ccc(C)c(C)c1
[1]
Settings	excess molar heat capacity, 298.15 K	mass density, 298.15 K [kg/m3]	mass density, 308.15 K [kg/m3]
x1 = 0.0712	–	879.01	–
x1 = 0.0829	0.643 J/K/mol	–	–
x1 = 0.1322	–	885.6	876.48
x1 = 0.1409	0.998 J/K/mol and 0.981 J/K/mol	–	–
x1 = 0.1765	–	890.46	881.29
x1 = 0.2844	1.571 J/K/mol and 1.511 J/K/mol	–	–
x1 = 0.2874	–	902.94	893.72
x1 = 0.3441	–	909.49	900.27
x1 = 0.377	1.621 J/K/mol	–	–
x1 = 0.3967	–	915.71	906.56
x1 = 0.445	–	921.57	912.35
x1 = 0.4558	1.622 J/K/mol	–	–
x1 = 0.5283	–	932.03	922.7
x1 = 0.5359	1.475 J/K/mol	–	–
x1 = 0.5861	–	939.54	930.13
x1 = 0.6329	–	945.69	936.31
x1 = 0.6367	1.241 J/K/mol	–	–
x1 = 0.6879	–	953.12	943.75
x1 = 0.6974	1.021 J/K/mol	–	–
x1 = 0.7772	0.753 J/K/mol	–	–
x1 = 0.7796	–	966.07	956.62
x1 = 0.7804	–	966.21	956.8
x1 = 0.8187	–	971.88	962.37
x1 = 0.9027	–	984.6	975.04
x1 = 0.9039	0.294 J/K/mol	–	–
x1 = 0.9079	–	985.41	975.88
x1 = 0.9431	0.176 J/K/mol	–	–
x1 = 0.9687	–	995.12	–
x1 = 0.9822	–	997.27	–
x1 = 1	–	1000.25	990.67

N#Cc1ccccc1 [benzonitrile] + Cc1ccc(C)cc1
[1], 298.15 K, Flow calorimetry
Settings	excess molar heat capacity [J/K/mol]
x1 = 0.0349	0.303
x1 = 0.0918	0.681
x1 = 0.2035	1.281
x1 = 0.2559	1.362
x1 = 0.3682	1.534
x1 = 0.4313	1.443
x1 = 0.5014	1.374
x1 = 0.5905	1.132
x1 = 0.6663	0.966
x1 = 0.7646	0.664
x1 = 0.8402	0.453
x1 = 0.9222	0.168
x1 = 0.9776	0.082

mass density [kg/m3], [1]
Settings	x1 = 0.1009	x1 = 0.2247	x1 = 0.2938	x1 = 0.4357	x1 = 0.5627	x1 = 0.6605	x1 = 0.7646	x1 = 0.8328	x1 = 0.9439	x1 = 1
298.15 K	869.79	886.32	895.69	915.25	933.25	947.47	963.07	973.55	991.13	1000.25
308.15 K	860.32	876.88	886.28	905.85	923.86	938.07	953.65	964.15	981.68	990.67

Cc1ccccc1C [1,2-dimethylbenzene] + N#Cc1ccccc1
[1], x2 = 0
Settings	mass density [kg/m3]
298.15 K	875.55
308.15 K	866.29

N#Cc1ccccc1 [benzonitrile] + CC(C)c1ccccc1
[1], x1 = 1
Settings	mass density [kg/m3]
298.15 K	1000.25
308.15 K	990.67

Cc1ccc(C)c(C)c1 [1,2,4-trimethylbenzene]
Settings	molar heat capacity at constant pressure [J/K/mol]
[2]	213.02

[3]
Settings	mass density [kg/m3]
298.15 K	871.56
308.15 K	862.53

COc1ccccc1 [anisole] + N#Cc1ccccc1
[1], x2 = 0
Settings	mass density [kg/m3]
298.15 K	988.98
308.15 K	978.7

Cc1cc(C)cc(C)c1 [1,3,5-trimethylbenzene]
Settings	molar heat capacity at constant pressure [J/K/mol]
[2]	207.43

[3]
Settings	mass density [kg/m3]
298.15 K	860.9
308.15 K	851.88
